Values of other authors, collected in patent US20080045583A1, “STABLE LEVETIRACETAM COMPOSITIONS AND METHODS” (priority 2006, published 2008).

Details: oral, with or without food

bioavailability, effect of food: not affected by food
SMILES: CC[C@@H](C(N)=O)N1CCCC1=O [Levetiracetam, (−)-(S)-α-ethyl-2-oxo-1-pyrrolidine acetamide]
